Measured values: patent US20070128596A1, “Reagents and methods for identifying and modulating expression of tumor senescence genes” (priority 2002, published 2007)

Columns and labels:
Format in all cases: cell-based, human
[1] = system: senescence-associated genes in HCT116 cells; assay: RT-PCR of senescence-associated gene expression in wild type, p21−/− and p53−/− HCT116 cells upon doxorubicin treatment
Protocol: (§1) In these experiments, poly(A)^+ RNA and protein extracts were prepared from PKH2^lo and PKH2^hi cell populations, separated in different experiments 6, 9 or 10 days after release from doxorubicin. Fluorescent cDNA probes were synthesized and used for hybridization with the Human UniGEM V 2.0 cDNA microarray and signal analysis (assays were conducted by IncyteGenomics, St. Louis, Mo., as described at that company's web site, www.incyte.com). Changes in gene expression were verified by semi-quantitative reverse transcription-PCR (RT-PCR), essentially as described (Noonan et al., 1990, Proc. Natl. Acad. Sci. USA 87: 7160-7164), using β-actin as an internal normalization standard and the oligonucleotide primers shown in Table 3. RT-PCR analysis was carried out using two pairs of proliferating- and senescent-cell RNA preparations isolated in independent experiments, with the same results; for a subset of the genes, the assays were reproduced with the same pair of RNA samples. […] Bands were detected using horseradish peroxidase-labeled secondary antibodies and ECL chemiluminescence detection kit (Amersham Pharmacia Biotech, Piscataway, N.J.).
To elucidate the roles of p53 and p21 in the observed changes in gene expression, expression of senescence-associated genes upon doxorubicin treatment of wild type, p21−/− and p53−/− HCT116 cells was analyzed. RNA samples were isolated before the addition of the drug, immediately after one-day treatment with doxorubicin, and on three consecutive days after the removal of the drug.

p21 = assay: Immunoblotting of p53 and p21 in wild type, p21−/− and p53−/− HCT116 cell lines treated with doxorubicin; conditions: wild type vs p53−/− and p21−/− HCT116
Protocol: as §1

[2] = system: HCT116 colon carcinoma cells; assay: Senescence-associated β-galactosidase (SA-β-gal) staining; conditions: PKH2hi fraction after 200 nM doxorubicin 24 hr
Protocol: (§2) HCT116 colon carcinoma cells (Myohanen et al., 1998, Cancer Res. 58: 591-593; Accession No. CCL-247, American Type Culture Collection, Manassas, Va.), including wild-type, p21−/− (clone 80S4) and p53−/− (clone 379.2) cell lines (a gift of Dr. B. Vogelstein, Johns Hopkins University) were grown in Dulbecco Modified Eagle Medium with 10% FC2 serum. Cells were plated at 5×10^6 cells per 15-cm plate and treated for 24-hr with 200 nM doxorubicin. Thereafter, cells were allowed to recover in drug-free media up to 10 days. For fluorescence-activated cell sorter (FACS) analysis of cell division, cells were labeled with PKH2 (a lipophilic fluorophore; Sigma Chemical Co., St. Louis, Mo.), which stably incorporates into the plasma membrane and distributes evenly between daughter cells, resulting in gradual decrease in PKH2 fluorescence during consequent cell divisions (Horan et al., 1989, Nature 340: 167-168). FACS analysis and cell sorting carried out as described in Chang et al. (1999, Cancer Res. 59: 3761-3767 and 1999, Oncogene 18: 4808-4818). Sorted fractions of senescent (pKH2^hi) and proliferating (PKH2^lo) cells (90-95% purity) were analyzed for DNA content using propidium iodide (PI) staining and FACS analysis as described by Jordan et al. (1996, Cancer Res. 56: 816-825). […]

[3] = system: HCT116 colon carcinoma cells; assay: DNA content analysis by propidium iodide staining and FACS; conditions: PKH2hi fraction after 200 nM doxorubicin 24 hr
Protocol: as §2

Maspin = assay: Immunoblotting of protein products of senescence-associated genes in doxorubicin-treated HCT116 cells
Protocol: as §1

[4] = system: HCT116 colon carcinoma cells; assay: Clonogenicity of sorted populations (colony formation); conditions: PKH2hi fraction separated after doxorubicin treatment
Protocol: as §2

[5] = system: HCT116 colon carcinoma cells; assay: FACS analysis of cell division by PKH2 fluorescence after doxorubicin treatment; conditions: 200 nM doxorubicin 24 hr
Protocol: as §2
Changes in PKH2 fluorescence were monitored by FACS on different days after doxorubicin treatment. […]

With `COc1cccc2c1C(=O)c1c(O)c3c(c(O)c1C2=O)C[C@@](O)(C(=O)CO)C[C@@H]3O[C@H]1C[C@H](N)[C@H](O)[C@H](C)O1` [doxorubicin] the “Maspin induction in p53−/− cells” value ([1]; p53−/− HCT116) was “still readily detectable in p53−/− cells”, the “BTG2 induction in p53−/− cells” value ([1]; p53−/− vs wild type HCT116) was “inducible by doxorubicin in p53−/− cells, albeit to a lesser degree than in the wild type cells” and the “EPLIN induction in the unsorted cells” value ([1]; unsorted HCT116 cells, compared with the other growth-inhibitory genes) was “weakest induction”. For the same compound, the “Amphiregulin induction, dependence on p53” value ([1]; wild type vs p53−/− HCT116) was “only moderate dependence on p53”, the “BTG1 induction, dependence on p53” value ([1]; wild type vs p53−/− HCT116) was “independent of p53” and the “IGFBP-6 induction, dependence on p53” value ([1]; wild type vs p53−/− HCT116) was “no dependence on p53”. The “MIC-1 induction, dependence on p53” value ([1]; wild type vs p53−/− HCT116) was “only weak dependence on p53”, the “p21 protein induction, dependence on p53” value (p21) was “strongly dependent on p53” and the “SA-β-gal staining of PKH2hi cells” value [2] was “stained positively for SA-β-gal”. The “cell cycle phase of PKH2hi cells (DNA content)” value [3] was “remained in G2”, the “Maspin induction at the protein level” value (Maspin) was “very strong induction” and the “colony formation by PKH2hi cells” value [4] was “have lost their proliferative capacity”. For the same compound, the “day on which a proliferating cell population (PKH2lo) emerged” value ([5]; days after treatment) was 4 days and the “growth arrest of PI-negative cells (PKH2 fluorescence)” value ([5]; first 2-3 days after treatment) was “remained growth-arrested”.
